We go through 23 molecules from patent publication US11708348B2, “Protease inhibitors for treatment of coronavirus infections” (The Scripps Research Institute, priority 2021, dated 2023).

The test system of the first assay is SARS-CoV-2 strain USA-WA1/2020. Description: microbe, parasite or virus in culture. As to conditions: Severe acute respiratory syndrome coronavirus 2, HeLa-ACE2, 24 h, HeLa-ACE2 cells, SARS-CoV-2 infection, 24 h; cells given as a bound; read-out: EC50, uM (Hela). Format: cell-based.
On to `CC(C)C[C@H](NC(=O)O[C@@H]1CCOC1)C(=O)N[C@@H](C[C@@H]1CCNC1=O)C(=O)COc1c(F)c(F)cc(F)c1F` [Compound 126, (R)-tetrahydrofuran-3-yl ((S)-4-methyl-1-oxo-1-(((S)-3-oxo-1-((S)-2-oxopyrrolidin-3-yl)-4-(2,3,5,6-tetrafluorophenoxy)butan-2-yl)amino)pentan-2-yl)carbamate], for which the EC50 is greater than 1 µM.
On to `CC(C)C[C@H](NC(=O)OCCCc1cccc(Cl)c1)C(=O)N[C@@H](C[C@@H]1CCNC1=O)C(=O)COc1c(F)c(F)cc(F)c1F` [Compound 128, 3-(3-chlorophenyl)propyl ((S)-4-methyl-1-oxo-1-(((S)-3-oxo-1-((S)-2-oxopyrrolidin-3-yl)-4-(2,3,5,6-tetrafluorophenoxy)butan-2-yl)amino)pentan-2-yl)carbamate], for which the EC50 is greater than 1 µM.
On the same count and under the same terms, in the case of `CC(C)C[C@H](NC(=O)OCCc1cccc(Cl)c1)C(=O)N[C@@H](C[C@@H]1CCNC1=O)C(=O)COc1c(F)c(F)cc(F)c1F` [Compound 138, 3-chlorophenethyl ((S)-4-methyl-1-oxo-1-(((S)-3-oxo-1-((S)-2-oxopyrrolidin-3-yl)-4-(2,3,5,6-tetrafluorophenoxy)butan-2-yl)amino)pentan-2-yl)carbamate] it was greater than 1 µM.
In the case of `CC(C)C[C@H](NC(=O)OC/C=C/c1cccc(Cl)c1)C(=O)N[C@@H](C[C@@H]1CCNC1=O)C(=O)COc1c(F)c(F)cc(F)c1F` [Compound 139, (E)-3-(3-chlorophenyl)allyl ((S)-4-methyl-1-oxo-1-(((S)-3-oxo-1-((S)-2-oxopyrrolidin-3-yl)-4-(2,3,5,6-tetrafluorophenoxy)butan-2-yl)amino)pentan-2-yl)carbamate], the EC50 was greater than 1 µM.

Staying with this assay, now noted: Severe acute respiratory syndrome coronavirus 2, HeLa-ACE2, 24 h, HeLa-ACE2 cells, SARS-CoV-2 infection, 24 h; class symbols; read-out: EC50, uM (Hela).
For `Cc1ccccc1NC(=O)C(=O)N[C@@H](CC1CC1)C(=O)N[C@@H](C[C@@H]1CCNC1=O)C(=O)COc1c(F)c(F)cc(F)c1F` [Compound 116, N1-((S)-3-cyclopropyl-1-oxo-1-(((S)-3-oxo-1-((S)-2-oxopyrrolidin-3-yl)-4-(2,3,5,6-tetrafluorophenoxy)butan-2-yl)amino)propan-2-yl)-N2-(o-tolyl)oxalamide], the EC50 is less than 0.05 µM.
As for `CC(C)(C)c1ccccc1NC(=O)C(=O)N[C@@H](CC1CCCCC1)C(=O)N[C@@H](C[C@@H]1CCNC1=O)C(=O)COc1c(F)c(F)cc(F)c1F` [Compound 117, Nl-(2-(tert-butyl)phenyl)-N2-((S)-3-cyclohexyl-1-oxo-1-(((S)-3-oxo-1-((S)-2-oxopyrrolidin-3-yl)-4-(2,3,5,6-tetrafluorophenoxy)butan-2-yl)amino)propan-2-yl)oxalamide], the EC50 was less than 0.05 µM.
Still for that read-out and setting: in the case of `Cc1cc(C(=O)N[C@H](C(=O)N[C@@H](CC(C)C)C(=O)N[C@@H](C[C@@H]2CCNC2=O)C(=O)COc2c(F)c(F)cc(F)c2F)C(C)(C)C)no1` [Compound 118, N-((S)-3,3-dimethyl-1-(((S)-4-methyl-1-oxo-1-(((S)-3-oxo-1-((S)-2-oxopyrrolidin-3-yl)-4-(2,3,5,6-tetrafluorophenoxy)butan-2-yl)amino)pentan-2-yl)amino)-1-oxobutan-2-yl)-5-methylisoxazole-3-carboxamide] it was 0.2 to 0.5 µM; in that of `CC(C)(C)[C@H](NC(=O)C(=O)Nc1ccccc1F)C(=O)N[C@@H](C[C@@H]1CCNC1=O)C(=O)COc1c(F)c(F)cc(F)c1F` [Compound 119, N1-((S)-3,3-dimethyl-1-oxo-1-(((S)-3-oxo-1-((S)-2-oxopyrrolidin-3-yl)-4-(2,3,5,6-tetrafluorophenoxy)butan-2-yl)amino)butan-2-yl)-N2-(2-fluorophenyl)oxalamide], 0.2 to 0.5 µM; in that of `COc1cccc(NC(=O)C(=O)N[C@@H](CC(C)C)C(=O)N[C@@H](C[C@@H]2CCNC2=O)C(=O)COc2c(F)c(F)cc(F)c2F)c1` [Compound 120, N1-(3-methoxyphenyl)-N2-((S)-4-methyl-1-oxo-1-(((S)-3-oxo-1-((S)-2-oxopyrrolidin-3-yl)-4-(2,3,5,6-tetrafluorophenoxy)butan-2-yl)amino)pentan-2-yl)oxalamide], less than 0.05 µM.
With `COc1ccc(NC(=O)C(=O)N[C@@H](CC(C)C)C(=O)N[C@@H](C[C@@H]2CCNC2=O)C(=O)COc2c(F)c(F)cc(F)c2F)cc1` [Compound 121, N1-(4-methoxyphenyl)-N2-((S)-4-methyl-1-oxo-1-(((S)-3-oxo-1-((S)-2-oxopyrrolidin-3-yl)-4-(2,3,5,6-tetrafluorophenoxy)butan-2-yl)amino)pentan-2-yl)oxalamide], the EC50 was less than 0.05 µM.
Still for that read-out and setting: in the case of `CC(C)C[C@H](NC(=O)C(=O)Nc1ccccc1)C(=O)N[C@@H](C[C@@H]1CCNC1=O)C(=O)COC(F)(F)F` [Compound 122, N1-((S)-4-methyl-1-oxo-1-(((S)-3-oxo-1-((S)-2-oxopyrrolidin-3-yl)-4-(trifluoromethoxy)butan-2-yl)amino)pentan-2-yl)-N2-phenyloxalamide] it was less than 0.05 µM.
Same read-out and setting: the result for `CC(C)C[C@H](NC(=O)C(=O)Nc1ccccc1F)C(=O)N[C@@H](CCC(=O)N(C)C)C(=O)COc1c(F)c(F)cc(F)c1F` [Compound 123, N1-((S)-1-(((S)-6-(dimethylamino)-2,6-dioxo-1-(2,3,5,6-tetrafluorophenoxy)-hexan-3-yl)amino)-4-methyl-1-oxopentan-2-yl)-N2-(2-fluorophenyl)oxalamide] reads 0.05 to 0.2 µM; that for `CC(C)C[C@H](NC(=O)C(=O)NC1CCC1)C(=O)N[C@@H](C[C@@H]1CCNC1=O)C(=O)COc1c(F)c(F)cc(F)c1F` [Compound 124, N1-cyclobutyl-N2-((S)-4-methyl-1-oxo-1-(((S)-3-oxo-1-((S)-2-oxopyrrolidin-3-yl)-4-(2,3,5,6-tetrafluorophenoxy)butan-2-yl)amino)pentan-2-yl)oxalamide], 0.05 to 0.2 µM; that for `CC(C)C[C@H](NC(=O)O[C@H]1CCOC1)C(=O)N[C@@H](C[C@@H]1CCNC1=O)C(=O)COc1c(F)c(F)cc(F)c1F` [Compound 127, (S)-tetrahydrofuran-3-yl ((S)-4-methyl-1-oxo-1-(((S)-3-oxo-1-((S)-2-oxopyrrolidin-3-yl)-4-(2,3,5,6-tetrafluorophenoxy)butan-2-yl)amino)pentan-2-yl)carbamate], 0.5 to 1 µM.
Still for that read-out and setting: in the case of `CC(C)C[C@H](NC(=O)C(=O)Nc1ccccc1F)C(=O)N[C@@H](C[C@@H]1CCCNC1=O)C(=O)COc1c(F)c(F)cc(F)c1F` [Compound 129, N1-(2-fluorophenyl)-N2-((S)-4-methyl-1-oxo-1-(((S)-3-oxo-1-((S)-2-oxopiperidin-3-yl)-4-(2,3,5,6-tetrafluorophenoxy)butan-2-yl)amino)pentan-2-yl)oxalamide] it was less than 0.05 µM.
With `CC(C)(C)C[C@H](NC(=O)C(=O)Nc1ccccc1F)C(=O)N[C@@H](C[C@@H]1CCNC1=O)C(=O)COc1c(F)c(F)cc(F)c1F` [Compound 130, N1-((S)-4,4-dimethyl-1-oxo-1-(((S)-3-oxo-1-((S)-2-oxopyrrolidin-3-yl)-4-(2,3,5,6-tetrafluorophenoxy)butan-2-yl)amino)pentan-2-yl)-N2-(2-fluorophenyl)oxalamide], the EC50 was less than 0.05 µM.
On the same count and under the same terms, the result for `CC(C)C[C@H](NC(=O)C(=O)Nc1ccccc1F)C(=O)N[C@@H](C[C@@H]1CCNC1=O)C(=O)COc1c(F)cc(F)cc1F` [Compound 131, N1-(2-fluorophenyl)-N2-((S)-4-methyl-1-oxo-1-(((S)-3-oxo-1-((S)-2-oxopyrrolidin-3-yl)-4-(2,4,6-trifluorophenoxy)butan-2-yl)amino)pentan-2-yl)oxalamide] reads 0.2 to 0.5 µM; that for `CC(C)C[C@H](NC(=O)C(=O)Nc1ccccc1F)C(=O)N[C@@H](C[C@@H]1CCNC1=O)C(=O)COc1c(F)ccc(F)c1F` [Compound 132, N1-(2-fluorophenyl)-N2-((S)-4-methyl-1-oxo-1-(((S)-3-oxo-1-((S)-2-oxopyrrolidin-3-yl)-4-(2,3,6-trifluorophenoxy)butan-2-yl)amino)pentan-2-yl)oxalamide], 0.05 to 0.2 µM; that for `CC(C)C[C@H](NC(=O)C(=O)N[C@@H]1CCCOC1)C(=O)N[C@@H](C[C@@H]1CCNC1=O)C(=O)COc1c(F)c(F)cc(F)c1F` [Compound 133, N1-((S)-4-methyl-1-oxo-1-(((S)-3-oxo-1-((S)-2-oxopyrrolidin-3-yl)-4-(2,3,5,6-tetrafluorophenoxy)butan-2-yl)amino)pentan-2-yl)-N2-((R)-tetrahydro-2H-pyran-3-yl)oxalamide], 0.05 to 0.2 µM.
Turning to `O=C(Nc1ccccc1Cl)C(=O)NC(CC1CCOCC1)C(=O)N[C@@H](C[C@@H]1CCNC1=O)C(=O)COc1c(F)c(F)cc(F)c1F` (stereo partly drawn) [Compound 134, N1-(2-chlorophenyl)-N2-(1-oxo-1-(((S)-3-oxo-1-((S)-2-oxopyrrolidin-3-yl)-4-(2,3,5,6-tetrafluorophenoxy)butan-2-yl)amino)-3-(tetrahydro-2H-pyran-4-yl)propan-2-yl)oxalamide], the EC50 was less than 0.05 µM.
As for `CC(C)C[C@H](NC(=O)C(=O)Nc1ccccc1F)C(=O)N[C@H](Cc1cnc[nH]1)C(=O)COc1c(F)c(F)cc(F)c1F` [Compound 136, Nl-((S)-1-(((R)-1-(1H-imidazol-5-yl)-3-oxo-4-(2,3,5,6-tetrafluorophenoxy)butan-2-yl)amino)-4-methyl-1-oxopentan-2-yl)-N2-(2-fluorophenyl)oxalamide], the EC50 lay within 0.5 to 1 µM.
Regarding `CC(C)C[C@H](NC(=O)OCC1CCCC1)C(=O)N[C@@H](C[C@@H]1CCNC1=O)C(=O)COc1c(F)c(F)cc(F)c1F` [Compound 137, cyclopentylmethyl ((S)-4-methyl-1-oxo-1-(((S)-3-oxo-1-((S)-2-oxopyrrolidin-3-yl)-4-(2,3,5,6-tetrafluorophenoxy)butan-2-yl)amino)pentan-2-yl)carbamate], the EC50 was in the range of 0.5 to 1 µM.

The same assay, now with this note: Severe acute respiratory syndrome coronavirus 2, HeLa-ACE2, 24 h; read-out: EC50, uM (Hela).
Consider `CC(C)C[C@H](NC(=O)C(=O)Nc1ccccc1F)C(=O)N[C@@H](C[C@@H]1CCNC1=O)C(=O)COP(=O)(c1ccccc1)c1ccccc1` [Compound 125, (S)-3-((S)-2-(2-((2-fluorophenyl)amino)-2-oxoacetamido)-4-methylpentanamido)-2-oxo-4-((S)-2-oxopyrrolidin-3-yl)butyl diphenylphosphinate], for which the EC50 is less than 0.05 µM.

In general, EC50 refers to the concentration giving half of the maximal effect.
